What was measured:
Solubility in PBS = assay type: physicochemical; conditions: PBS pH 7.4, room temperature
Procedure: To study the solubility of the compounds in PBS.
About 2 mg of the compound was weighed, an appropriate amount of a PBS solution was added, and the mixture was dissolved clear by ultrasonication for 10 seconds. No precipitation was found after standing at room temperature overnight.

[1] = system: activation of STAT3 phosphorylation by hIL23 in DB cells; test: Blocking the activation of STAT3 phosphorylation by hIL23 in DB cells (p-STAT3 ELISA); assay type: cell-based, Human; conditions: DB cells stimulated by rhIL-23 0.5 nM, half an hour; read-out: pStat3 IC50
Procedure: To determine the inhibitory activity of the compounds of the present disclosure on the activation of STAT3 phosphorylation by hIL23 in DB cells
The compounds produced above were added to DB (ATCC Cat #CRL-2289) cells to inhibit the signal transduction of rhIL-23 cytokine. The screening of compounds was carried out by a multi-well plate (suitable for ELISA assay). Generally, in the presence of some of the above compounds of the present disclosure, 6.25×10^6 cells/ml of DB cells were stimulated by rhIL-23 (0.5 nM, R&D SYSTEMS) in RPMI medium (Invitrogen) containing 10% of FBS, and after half an hour, lysis was carried out on ice using 50 μL of 2×lysis buffer (CST). The content of p-STAT3 in the lysate was determined by PathScan Phospho-Stat3 (Tyr705) Sandwich ELISA Kit (CST Cat #7300C), so as to calculate the activity of the compounds of the present disclosure in blocking rhIL23 signal transduction in DB cells.
The inhibition rate was calculated as follows: […]
By using log (inhibitor) vs. response—Variable slope (four parameters) in Graphpad, the data of ELISA experiment results were subjected to non-linear regression fitting to fit a curve and obtain the IC50 value.

[2] = system: IL23-induced rat otitis model; test: In vivo pharmacodynamics in IL23-induced rat otitis model (ear thickening); parameters: species or system SD rats; conditions: 10 mg/kg, gavage, QD
Description: To evaluate the in vivo efficacy of the compounds in an IL23-induced rat otitis model.
SD rats, 6-8 weeks old, male, purchased from Jiangsu GemPharmatech Co., Ltd.
• a. […]

Q: Which results are given for `CC(=O)NCCCC[C@@H]1NC(=O)[C@H](Cc2c[nH]c3c(C)cccc23)NC(=O)[C@H]([C@@H](C)O)NC(=O)[C@H](CC(N)=O)NC(=O)[C@@H](NC(C)=O)C(C)(C)SSC(C)(C)[C@@H](C(=O)N[C@@H](Cc2ccc(OCCN)cc2)C(=O)N[C@@H](Cc2ccc3ccccc3c2)C(=O)NC2(C(=O)N[C@@H](CCC(=O)O)C(=O)N[C@@H](CC(N)=O)C(=O)N[C@@H](Cc3cccnc3)C(=O)N(C)CCNC(=O)CCOCCOCC[N+](C)(C)CCNC(=O)COCCOCCNC(=O)COCCOCCNC(=O)CC[C@H](NC(=O)CCCCCCCCCCCCCCC(=O)O)C(=O)O)CCC(F)(F)CC2)NC1=O` [Example 1-16-1]?
A: solubility (Solubility in PBS): 39.6 to 59.4 mg/mL; IC50 [1]: 4.8 pM; Inhibition rate on Day 4 (ear thickening) [2]: 70.77%

— patent publication US20260193294A1, “POLYPEPTIDE INHIBITOR, AND PREPARATION METHOD THEREFOR AND USE THEREOF” (SHANGHAI HANSOH BIOMEDICAL CO., LTD., priority 2022, published 2026)
